# Experimental data as given in US10202379B2, “Substituted polycyclic carbamoyl pyridone derivative prodrug” (priority 2010, dated 2019).
# Where two headings read alike, the source gives them in different places.
# Key:
# [1] = BA test (oral absorbability); assay type: in vivo; settings: rat; for plasma concentration of the prodrug itself: oral administration, non-fasting, all plasma samples; for Parent compound BA(%): oral administration of parent compound
# Experimental: Experimental Material and Method for Studying Oral Absorbability
# (1) Animal to be used: A mouse or rat was used.
# (2) Rearing conditions: Mouse and rat ingested a solid feed and sterilized tap water ad-libitum.
# (3) Dose and setting of grouping: A predetermined dose was administered orally or intravenously. A group was set as follows. (a dose varied for every compound)
# Oral administration 1 to 30 mg/kg (n=2 to 3)
# Intravenous administration 0.5 to 10 mg/kg (n=2 to 3)
# (4) Preparation of administration solution: For oral administration, a solution or suspension was administered. For intravenous administration, a compound which was solubilized was administered.
# (5) Administration method: For oral administration, the administration solution was forcibly administered to the stomach by oral sonde. For intravenous administration, the administration solution was administered with a syringe equipped with an injection needle through a tail vein.
# (6) Assessment item: Blood was collected with time, and a plasma drug concentration was measured using LC/MS/MS.
# (7) Statistical analysis: Regarding plasma concentration transition, an area under a plasma concentration-time curve (AUC) was calculated using a non-linear minimum square method program WinNonlin (registered trademark), and bioavailability (BA) was calculated from AUC of an oral-administered group and an intervenous-administered group.
# [2] = tested on: influenza virus (A/WS/33, A/Victoria/3/75 or B/Maryland/1/59); assay type: in vivo; settings: oral, infected mouse, 14 days after virus infection
# [3] = tested on: influenza virus; assay: microbe, parasite or virus in culture; assay type: cell-based; settings: MDBK or MDCK cells, 3 days, WST-8
# [4] = biological target: Cap-dependant Endonuclease (CEN) (RNP fraction, PB1-PB2-PA complex) (Influenza A virus (strain A/Wilson-Smith/1933 H1N1) (Influenza A virus (strain A/WS/1933 H1N1)), UniProt P15659); assay type: biochemical, influenza A/WSN/33 virus
# [5] = unidentified influenza virus, 72 h, read-out: CPE EC50, parent compounds (Reference examples)
# [6] = parent compounds (Reference examples), room temperature, 60 minutes
# [7] = parent compounds (Reference examples), read-out: CPE EC50
SMILES,"EC50 [3, 5] [µM]","IC50 [4, 6] [µM]",further results
CC(=O)Oc1c2n(ccc1=O)N(C1c3ccccc3CSc3ccccc31)CN(C(C)C)C2=O (stereo not drawn) [Example 204],–,–,plasma concentration of the prodrug itself [1]: a determination limit or less
CC(=O)Oc1c2n(ccc1=O)N([C@H]1c3ccccc3CSc3ccccc31)CN([C@H](C)C(F)(F)F)C2=O [Example 20],–,–,ED50 of single dose (dose for 50% lethality inhibition) [2]: 4.4 mg/kg/day
C[C@@H](N1CN([C@H]2c3cccc(F)c3CSc3c(Cl)cccc32)n2ccc(=O)c(O)c2C1=O)C(F)(F)F [Reference example 594],0.004,–,IC50 [4]: 0.011 µM; Parent compound BA(%) [1]: 5.0%
CC(=O)OCOc1c2n(ccc1=O)N(C1c3ccccc3CSc3ccccc31)CN(C(C)C)C2=O (stereo not drawn) [Example 114],–,–,plasma concentration of the prodrug itself [1]: a determination limit or less
Cc1cccc2c1CCc1ccccc1C2N1CN([C@H](C)C(F)(F)F)C(=O)c2c(O)c(=O)ccn21 (stereo partly drawn) [Reference example 631],0.041,0.075,–
C[C@@H](N1CN([C@H]2c3ccc(F)cc3CSc3c(Br)cccc32)n2ccc(=O)c(O)c2C1=O)C(F)(F)F [Reference example 619],0.006,0.005,–
C[C@@H](N1CN(C2c3ccccc3CCc3cc(F)c(F)cc32)n2ccc(=O)c(O)c2C1=O)C(F)(F)F (stereo partly drawn) [Reference example 636],0.015,0.074,–
COCCC(=O)Oc1c2n(ccc1=O)N([C@@H]1c3ccccc3SCc3c(Cl)cccc31)CN([C@H](C)C(F)(F)F)C2=O [Example 108],–,–,"EC50 [3, 7]: 0.019 µM; IC50 [4]: 0.037 µM"
C[C@@H](N1CN([C@@H]2c3ccccc3SCc3cccc(N(C)C)c32)n2ccc(=O)c(O)c2C1=O)C(F)(F)F [compound 752],0.00312,0.0142,–
C[C@@H](N1CN([C@@H]2c3ccccc3SCc3cccc(Cl)c32)n2cc(CO)c(=O)c(O)c2C1=O)C(F)(F)F [compound 666],–,–,"EC50 [3, 7]: 0.00391 µM; IC50 [4]: 0.00336 µM"
CCN(CC)CCN1CN(C2c3ccccc3CCc3ccccc32)n2ccc(=O)c(O)c2C1=O [Reference example 490],0.468,0.212,–
O=C1c2c(O)c(=O)ccn2N(C2c3ccccc3CCc3ccccc32)CN1C1COC1 [Reference example 629],0.064,0.089,–
C[C@@H](N1CN([C@@H]2c3ccccc3CCc3c(Cl)cccc32)n2ccc(=O)c(O)c2C1=O)C(F)(F)F [Reference example 641],0.023,0.046,–
CC(=O)c1cn2c(c(O)c1=O)C(=O)N([C@H](C)C(F)(F)F)CN2[C@@H]1c2ccccc2SCc2c1ccc(F)c2F [compound 706],0.00719,0.0186,–
C[C@@H](N1CN([C@@H]2c3ccccc3SCc3c(F)cccc32)n2ccc(=O)c(O)c2C1=O)C(F)(F)F [Reference example 445],0.004,0.013,Parent compound BA(%) [1]: 12.1%
C[C@@H](N1CN([C@@H](c2ccccc2)c2ccccc2Cl)n2ccc(=O)c(O)c2C1=O)C(F)(F)F [Reference example 651],0.013,0.056,–
C[C@@H](N1CN([C@@H]2c3ccc(Cl)cc3SCc3c(F)cccc32)n2ccc(=O)c(O)c2C1=O)C(F)(F)F [Reference example 663],0.018,0.031,–
C[C@@H](N1CN([C@H]2c3ccc(F)cc3CSc3ccccc32)n2cc(B(O)O)c(=O)c(O)c2C1=O)C(F)(F)F [compound 708],0.00849,0.0465,–
C[C@@H](CO)N1CN(C2c3ccccc3CSc3ccccc32)n2ccc(=O)c(O)c2C1=O (stereo partly drawn) [Reference example 375],0.073,0.037,–
COC[C@H](C)N1C(=O)c2c(O)c(=O)ccn2N(C2c3ccccc3CCc3ccccc32)C1CCN(C)C (stereo partly drawn) [Reference example 644],0.06,–,IC50 [4]: 0.238 µM
C[C@@H](N1CN([C@@H]2c3ccccc3SCc3cccc(Cl)c32)n2cc(B(O)O)c(=O)c(O)c2C1=O)C(F)(F)F [compound 707],0.00305,0.0402,–
Cc1cccc2c1CSc1c(C)cccc1[C@H]2N1CN([C@H](C)C(F)(F)F)C(=O)c2c(O)c(=O)ccn21 [Reference example 613],0.018,–,IC50 [4]: 0.173 µM
CC(C)N1CN(C2c3ccccc3CSc3ccccc32)n2ccc(=O)c(O)c2C1=O (stereo not drawn) [Reference example 301],–,–,Parent compound BA(%) [1]: 2.3%

SMILES,"EC50 [3, 5] [µM]","IC50 [4, 6] [µM]",further results
C[C@@H](N1CN([C@@H]2c3ccccc3SCc3cccc(Cl)c32)n2cc(Cl)c(=O)c(O)c2C1=O)C(F)(F)F [compound 762],0.0059,0.0315,–
C[C@@H](N1CN([C@H]2c3ccccc3SCc3cccc(N(C)C)c32)n2ccc(=O)c(O)c2C1=O)C(F)(F)F [compound 753],0.0185,0.109,–
CCc1cccc2c1[C@H](N1CN([C@H](C)C(F)(F)F)C(=O)c3c(O)c(=O)ccn31)c1ccccc1SC2 [compound 731],0.00208,0.00576,–
C[C@@H](N1CN([C@H]2c3cc(F)ccc3CSc3c(F)cccc32)n2ccc(=O)c(O)c2C1=O)C(F)(F)F [Reference example 656],0.019,0.07,–
Cc1cn2c(c(O)c1=O)C(=O)N([C@H](C)C(F)(F)F)CN2[C@@H]1c2ccccc2SCc2c1ccc(F)c2F [compound 704],0.0035,0.0111,–
Cc1cccc2c1SCc1c(F)cccc1[C@@H]2N1CN([C@H](C)C(F)(F)F)C(=O)c2c(O)c(=O)ccn21 [Reference example 623],0.003,0.021,–
C[C@@H](N1CN([C@H]2c3ccccc3SCc3cccc(Br)c32)n2ccc(=O)c(O)c2C1=O)C(F)(F)F [Reference example 661],0.014,0.135,–
C[C@@H](N1CN([C@@H]2c3ccccc3SCc3c2ccc(F)c3F)n2cc(B(O)O)c(=O)c(O)c2C1=O)C(F)(F)F [compound 709],0.00709,0.0343,–
O=C1c2c(O)c(=O)ccn2N(C2c3ccccc3CSc3ccccc32)CN1C1COC1 (stereo not drawn) [Reference example 609],0.025,0.053,–
C[C@@H](N1CN([C@@H]2c3cccc(F)c3CSc3c(Cl)cccc32)n2ccc(=O)c(O)c2C1=O)C(F)(F)F [Reference example 597],0.049,–,IC50 [4]: 0.339 µM
C[C@@H](N1CN(C(c2ccc(F)cc2)c2ccc(F)cc2)n2ccc(=O)c(O)c2C1=O)C(F)(F)F [Reference example 649],0.051,0.182,–
C[C@@H](N1CN([C@H]2c3ccc(F)cc3CSc3c(Cl)cccc32)n2ccc(=O)c(O)c2C1=O)C(F)(F)F [Reference example 602],0.004,0.005,–
C[C@@H](N1CN([C@@H]2c3ccccc3CCc3c(F)cccc32)n2ccc(=O)c(O)c2C1=O)C(F)(F)F [Reference example 634],0.017,0.103,–
COc1cccc2c1CSc1ccccc1[C@H]2N1CN([C@H](C)C(F)(F)F)C(=O)c2c(O)c(=O)ccn21 [Reference example 600],0.036,0.059,–
C[C@@H](N1CN([C@@H]2c3ccccc3SCc3cccc(Br)c32)n2ccc(=O)c(O)c2C1=O)C(F)(F)F [Reference example 654],0.001,0.008,–
C[C@@H](N1CN([C@@H]2c3cccc(F)c3SCc3cccc(Cl)c32)n2ccc(=O)c(O)c2C1=O)C(F)(F)F [Reference example 621],0.002,–,IC50 [4]: 0.006 µM
C[C@@H](N1CN([C@@H]2c3ccc(F)cc3SCc3cccc(F)c32)n2ccc(=O)c(O)c2C1=O)C(F)(F)F [Reference example 598],0.005,0.016,–
Cc1cccc2c1SCc1cccc(Cl)c1[C@@H]2N1CN([C@H](C)C(F)(F)F)C(=O)c2c(O)c(=O)ccn21 [compound 768],0.00364,0.0153,–
C[C@@H](N1CN([C@@H]2c3ccccc3SCc3cccc(Cl)c32)n2ccc(=O)c(O)c2C1=O)C(F)(F)F [Reference example 429],0.004,–,Parent compound BA(%) [1]: 13.3%
C[C@@H](N1CN([C@@H]2c3ccccc3SCc3c2ccc(F)c3F)n2cc(Cl)c(=O)c(O)c2C1=O)C(F)(F)F [compound 716],0.0056,–,IC50 [4]: 0.00554 µM
C[C@@H](N1CN([C@@H]2c3ccccc3SCc3c(Cl)cccc32)n2ccc(=O)c(OCOC(=O)NCCN)c2C1=O)C(F)(F)F [Example 178],–,–,"EC50 [3, 7]: 0.075 µM; IC50 [4]: 0.061 µM"
C[C@@H](N1CN(C2c3ccccc3CCc3cccc(Cl)c32)n2ccc(=O)c(O)c2C1=O)C(F)(F)F (stereo partly drawn) [compound 686],0.00786,0.0151,–
COCCN1CC(C(c2ccccc2)c2ccccc2)n2cc(C(=O)O)c(=O)c(O)c2C1=O (stereo not drawn) [Example 2],0.293,0.048,–
